Earlier results in patent publication US8187629B2, “Non-lamellar compositions of DOPE and P80” (Camurus AB, priority 2004, dated 2012).

Conditions: room temperature; greater at physiological temperature

## CCCCCCCC/C=C\CCCCCCCC(=O)OCC(O)CO (stereo not shown) [GMO, glycerol monooleate]
  equilibrium water solubility: at least 10^−7 M
